Our source for the GI50 and TGI values is PubChem BioAssay (NCI).

SMILES strings stand for the structures.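 Where inhibition never reached the appropriate level, the endpoint shown equals the highest concentration tested. Otherwise, values were interpolated linearly from a five-concentration, 48-hour dose response in 96-well plates. The concentration for 50% growth inhibition is given as GI50. The concentration for full growth arrest is given as TGI.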

Among the test systems are NCI-H226 lung; 786-0 renal; SK-MEL-2 melanoma; UACC-257 melanoma; BT-549 breast; HCC-2998 colon; SK-OV-3 ovarian; OVCAR-8 ovarian; OVCAR-5 ovarian; SK-MEL-5 melanoma.
Holding throughout (test): NCI-60 cell line screen, 48 h

With `C=C1C(=O)O[C@H]2[C@H]1CC/C(COC(=O)c1cccnc1N)=C\CC[C@@]1(C)O[C@@H]21`, the GI50 in the experiment with NCI-H226 lung was 10.1 µM; in the experiment on 786-0 renal it was 1.7 µM; with SK-MEL-2 melanoma, 3.16 µM; in the experiment on UACC-257 melanoma, 2.32 µM; in the experiment with BT-549 breast it was 2.17 µM; in the experiment with HCC-2998 colon it was 4.43 µM. The GI50 with SK-OV-3 ovarian is 12.2 µM; in the experiment on OVCAR-8 ovarian, 4.2 µM; in the experiment with OVCAR-5 ovarian, 6.95 µM; in the experiment on SK-MEL-5 melanoma, 2.9 µM. Moreover, the TGI with NCI-H226 lung turned out to be 24.4 µM; in the experiment on 786-0 renal it was 4.24 µM; with SK-MEL-2 melanoma it was 12.5 µM; with UACC-257 melanoma it was 12.6 µM; with BT-549 breast it was 5.6 µM; in the experiment on HCC-2998 colon, 16.2 µM. In addition, the TGI was 73 µM in the experiment on SK-OV-3 ovarian, 16.3 µM in the experiment on OVCAR-8 ovarian, 21.7 µM in the experiment on OVCAR-5 ovarian and 12.5 µM in the experiment on SK-MEL-5 melanoma.
Take `COc1ccc2c(c1)C(=Nc1ccc(F)c(Cl)c1)c1c-2c(Nc2ccc(F)c(Cl)c2)nc2ccccc12`: the GI50 in the experiment with NCI-H226 lung is 39 µM; with 786-0 renal, 14.9 µM; in the experiment with SK-MEL-2 melanoma, 23.6 µM; in the experiment with UACC-257 melanoma it was above 60.6 µM; in the experiment with BT-549 breast, 23.4 µM; with HCC-2998 colon, above 100 µM. Moreover, the GI50 in the experiment on SK-OV-3 ovarian is 18.8 µM; in the experiment with OVCAR-8 ovarian, 22.6 µM; with OVCAR-5 ovarian it was above 76.6 µM; with SK-MEL-5 melanoma, above 100 µM. In addition, the TGI was above 77.6 µM in the experiment with NCI-H226 lung; 42.8 µM in the experiment on 786-0 renal; above 71.8 µM with SK-MEL-2 melanoma; above 100 µM with UACC-257 melanoma; above 74.4 µM in the experiment with BT-549 breast; above 100 µM in the experiment on HCC-2998 colon. Besides, the TGI in the experiment with SK-OV-3 ovarian was 98.6 µM; in the experiment with OVCAR-8 ovarian it was above 58.5 µM; in the experiment on OVCAR-5 ovarian it was above 100 µM; in the experiment on SK-MEL-5 melanoma, above 100 µM.
As to `Oc1ccc2c(=S)cc(-c3ccc(Br)cc3)oc2c1O`, the GI50 in the experiment on NCI-H226 lung is 7.22 µM; with 786-0 renal, 2.89 µM; in the experiment with SK-MEL-2 melanoma it was 2.27 µM; in the experiment on UACC-257 melanoma, 2.88 µM; with BT-549 breast, 2.19 µM; with HCC-2998 colon, 2.28 µM. For the same molecule, the GI50 is 2.6 µM in the experiment on SK-OV-3 ovarian, 2.28 µM with OVCAR-8 ovarian, 5.83 µM in the experiment with OVCAR-5 ovarian and 1.79 µM in the experiment with SK-MEL-5 melanoma. In addition, the TGI in the experiment on NCI-H226 lung was 39.4 µM; with 786-0 renal it was 11.1 µM; in the experiment on SK-MEL-2 melanoma it was 6.76 µM; in the experiment with UACC-257 melanoma, 8.25 µM; in the experiment on BT-549 breast it was 14.6 µM; in the experiment on HCC-2998 colon it was 7.03 µM. The TGI in the experiment with SK-OV-3 ovarian is 8.5 µM; with OVCAR-8 ovarian it was 8.92 µM; with OVCAR-5 ovarian, 78 µM; in the experiment with SK-MEL-5 melanoma, 3.95 µM.
Take `Brc1ccccc2cc(-c3ccccc3)nc1-2`: the TGI in the experiment on NCI-H226 lung stood at 37.7 µM; in the experiment with 786-0 renal, 10.8 µM; with SK-MEL-2 melanoma it was 18.6 µM; in the experiment with UACC-257 melanoma it was 32 µM; with BT-549 breast, 56.5 µM; in the experiment on HCC-2998 colon, 10.8 µM. The TGI is 37.8 µM in the experiment on SK-OV-3 ovarian, above 50.2 µM in the experiment with OVCAR-8 ovarian, 35 µM in the experiment on OVCAR-5 ovarian and 36.2 µM in the experiment with SK-MEL-5 melanoma.
Take `O=S1(=O)c2ccccc2N(c2ccccc2)c2nnnn21`: the TGI with NCI-H226 lung was above 100 µM; in the experiment with 786-0 renal, 32.7 µM; in the experiment on SK-MEL-2 melanoma it was above 100 µM; with UACC-257 melanoma, above 100 µM; in the experiment on BT-549 breast it was 70.5 µM; in the experiment with HCC-2998 colon, 36.4 µM. Also, the TGI with SK-OV-3 ovarian, in the experiment with OVCAR-8 ovarian, with OVCAR-5 ovarian and in the experiment with SK-MEL-5 melanoma was above 100 µM throughout.
As for `Cc1ccc(/C=N/NC(=O)c2ccccc2Oc2ccccc2)o1`, the GI50 in the experiment with NCI-H226 lung is 39.1 µM; with 786-0 renal, above 100 µM; with SK-MEL-2 melanoma it was 25.5 µM; in the experiment with UACC-257 melanoma, 36.5 µM; with BT-549 breast, 28.4 µM; with HCC-2998 colon, 65.3 µM. Besides, the GI50 in the experiment on SK-OV-3 ovarian was 77.6 µM; in the experiment on OVCAR-8 ovarian it was 39 µM; in the experiment with OVCAR-5 ovarian it was above 93 µM; with SK-MEL-5 melanoma, 16.4 µM. Further, the TGI in the experiment with NCI-H226 lung is above 100 µM; in the experiment on 786-0 renal, above 100 µM; with SK-MEL-2 melanoma it was above 90.9 µM; in the experiment on UACC-257 melanoma it was above 100 µM; with BT-549 breast, above 100 µM; with HCC-2998 colon, above 100 µM. Besides, the TGI in the experiment with SK-OV-3 ovarian was above 100 µM; in the experiment on OVCAR-8 ovarian, above 100 µM; with OVCAR-5 ovarian, above 100 µM; in the experiment with SK-MEL-5 melanoma it was 33.3 µM.
For the molecule `Cc1sc(C(=O)c2cncnc2N[C@@H]2C[C@H](COS(N)(=O)=O)[C@@H](O)C2)cc1[C@@H]1NCCc2ccc(Cl)cc21`, the GI50 with NCI-H226 lung is 10.3 µM; in the experiment with 786-0 renal, 12.9 µM; in the experiment on SK-MEL-2 melanoma it was 5.58 µM; with UACC-257 melanoma, 0.0793 µM; with BT-549 breast it was 12.8 µM; in the experiment with HCC-2998 colon, 0.922 µM. For the same molecule, the GI50 with SK-OV-3 ovarian is 2.65 µM; in the experiment on OVCAR-8 ovarian, 11.7 µM; in the experiment with OVCAR-5 ovarian, 9.43 µM; in the experiment with SK-MEL-5 melanoma, 1.94 µM. In addition, the TGI turned out to be 25.7 µM in the experiment with NCI-H226 lung; 28.8 µM with 786-0 renal; 23.9 µM in the experiment with SK-MEL-2 melanoma; 20.1 µM in the experiment on UACC-257 melanoma; 26.6 µM in the experiment on BT-549 breast; 19.9 µM in the experiment with HCC-2998 colon. Further, the TGI came out at 25.2 µM with SK-OV-3 ovarian, 58.7 µM in the experiment with OVCAR-8 ovarian, 23.6 µM in the experiment with OVCAR-5 ovarian and 17.3 µM in the experiment on SK-MEL-5 melanoma.
For `O=C(Nc1ccncc1)C(=O)c1cn(S(=O)(=O)c2cccc(Cl)c2)c2ccccc12`, the GI50 in the experiment with NCI-H226 lung is 13.6 µM; in the experiment with 786-0 renal, 7.94 µM; with SK-MEL-2 melanoma it was 11 µM; in the experiment with UACC-257 melanoma it was 24.7 µM; with BT-549 breast, 5.85 µM; with HCC-2998 colon it was 13.9 µM. Further, the GI50 was 30.2 µM in the experiment on SK-OV-3 ovarian, 7.98 µM in the experiment with OVCAR-8 ovarian, 11.5 µM in the experiment with OVCAR-5 ovarian and 3.61 µM with SK-MEL-5 melanoma. In addition, the TGI in the experiment with NCI-H226 lung was above 100 µM; in the experiment on 786-0 renal, 43.6 µM; in the experiment on SK-MEL-2 melanoma, above 100 µM; with UACC-257 melanoma it was above 100 µM; with BT-549 breast it was 38.3 µM; in the experiment with HCC-2998 colon, above 100 µM. Moreover, the TGI was above 100 µM in the experiment on SK-OV-3 ovarian, above 100 µM in the experiment on OVCAR-8 ovarian, above 100 µM in the experiment on OVCAR-5 ovarian and 39.5 µM in the experiment with SK-MEL-5 melanoma.
As for `COc1cc2c(cc1OC)C(C(CCCCCC(CCC(C)C)C1NCCc3cc(OC)c(OC)cc31)CCC(C)C)NCC2` (stereo not given), the GI50 was 1.79 µM in the experiment with NCI-H226 lung; 1.73 µM in the experiment on 786-0 renal; 2.1 µM in the experiment on SK-MEL-2 melanoma; 1.63 µM in the experiment with UACC-257 melanoma; 1.72 µM in the experiment on BT-549 breast; 0.188 µM in the experiment on HCC-2998 colon. For the same molecule, the GI50 is 1.58 µM with SK-OV-3 ovarian, 1.01 µM in the experiment on OVCAR-8 ovarian, 1.69 µM in the experiment on OVCAR-5 ovarian and 1.65 µM in the experiment on SK-MEL-5 melanoma. Besides, the TGI worked out at 3.6 µM in the experiment with NCI-H226 lung; 3.46 µM in the experiment with 786-0 renal; 3.72 µM in the experiment with SK-MEL-2 melanoma; 3.08 µM with UACC-257 melanoma; 3.12 µM in the experiment with BT-549 breast; 0.357 µM with HCC-2998 colon. Moreover, the TGI with SK-OV-3 ovarian was 2.99 µM; with OVCAR-8 ovarian it was 2.52 µM; with OVCAR-5 ovarian it was 3.17 µM; with SK-MEL-5 melanoma, 3.04 µM.
For the molecule `CC12OC(CC(O)C1O)n1c3ccccc3c3c4c(c5c6ccccc6n2c5c31)C(=O)N(CCN1CCOCC1)C4=O` (stereo not given), the GI50 was 1.11 µM in the experiment with NCI-H226 lung; 1.29 µM in the experiment with 786-0 renal; 2.18 µM in the experiment with SK-MEL-2 melanoma; 1.97 µM in the experiment with UACC-257 melanoma; 1.61 µM with BT-549 breast; 3.25 µM in the experiment with HCC-2998 colon. Also, the GI50 with SK-OV-3 ovarian was 1.19 µM; in the experiment with OVCAR-8 ovarian, 1.43 µM; with OVCAR-5 ovarian, 2.32 µM; with SK-MEL-5 melanoma, 0.791 µM. Besides, the TGI with NCI-H226 lung came to 4.01 µM; in the experiment with 786-0 renal it was 5.68 µM; in the experiment on SK-MEL-2 melanoma, 10.6 µM; in the experiment with UACC-257 melanoma, 7.64 µM; in the experiment with BT-549 breast, 8.21 µM; with HCC-2998 colon it was 10.6 µM. Moreover, the TGI with SK-OV-3 ovarian was 4.13 µM; in the experiment on OVCAR-8 ovarian it was 8.71 µM; with OVCAR-5 ovarian, 9.65 µM; in the experiment on SK-MEL-5 melanoma, 2.87 µM.
With `COc1cc(OCc2ccccc2)c2c(CCC(=O)O)cc(=O)oc2c1` (tested in a mixture with another compound), the TGI in the experiment on NCI-H226 lung, with 786-0 renal, in the experiment with SK-MEL-2 melanoma, with UACC-257 melanoma, in the experiment with BT-549 breast and in the experiment on HCC-2998 colon was above 100 µM each time. Besides, the TGI in the experiment on SK-OV-3 ovarian, in the experiment on OVCAR-8 ovarian, with OVCAR-5 ovarian and with SK-MEL-5 melanoma was above 100 µM throughout.
